US7271195B2, “Carbonyl compounds as inhibitors of histone deacetylase for the treatment of disease” (Kalypsys, Inc., priority 2003, dated 2007)
Like-named read-outs stand apart in the source and are kept apart here.

Columns and labels:
[1] = test system: T1, HDAC; experiment: In vitro HDAC-inhibition assay (Fluor de Lys fluorescent substrate); assay type: biochemical; settings: for IC50: in vitro HDAC enzyme source; for % Max Inhibition (in vitro): maximum inhibition
T1 construct: in vitro IC50; other: in vitro HDAC enzyme source
Method: In vitro HDAC-inhibition Assay:
This assay measures a compound's ability to inhibit acetyl-lysine deacetylation in vitro and was used as both a primary screening method as well as for IC50 determinations of confirmed inhibitors. The assay is performed in vitro using an HDAC enzyme source (e.g. partially purified nuclear extract or immunopurified HDAC complexes) and a proprietary fluorescent substrate/developer system (HDAC Quantizyme Fluor de Lys Fluorescent Activity Assay, BIOMOL). The assay is run in 1,536-well Greiner white-bottom plates using the following volumes and order of addition:
Step 1: Enzyme (2.5 ul) source added to plate (from refrigerated container) • Step 2: Compounds (50 nl) added with pin transfer device • Step 3: Fluor de Lys (2.5 ul) substrate added, incubate at RT, 30 minutes • Step 4: Developer (5 ul) solution is added (containing TSA), to stop reaction • Step 5: Plate Reader—data collection
The deacetylated fluorophore is excited with 360 nm light and the emitted light (460 nm) is detected on an automated fluorometric plate reader (Aquest, Molecular Devices).

[2] = test system: HDAC in cells (cellular histone acetylation levels); experiment: Cellular histone hyperacetylation assay (cytoblot), cellular HDAC inhibition; assay type: cell-based; settings: for Cellular IC50 / IC50: "active" = inhibitory activity but cellular IC50 could not be determined; for Emax / % Max. Inhibition (cellular): maximum inhibition; for Emax: read-out: % Max. Inhibition (cellular)
Method: Cellular Histone Hyperacetylation Assays:
These two secondary assays evaluates a compound's ability to inhibit HDAC in cells by measuring cellular histone acetylation levels. The cytoblot facilitates quantitative EC50 information for cellular HDAC inhibition. Transformed cell lines (e.g. HeLa, A549, MCF-7) are cultured under standard media and culture conditions prior to plating.
Cells (approx. 2,500/well) are allowed to adhere 10-24 hours to wells of a 384-well Greiner PS assay plate in media containing 1-5% serum. Cells are treated with appropriate compound and specific concentrations for 0 to 24 hours. Cells are washed once with PBS (60 ul) and then fixed (95% ethanol, 5% acetic acid or 2% PFA) for 1 minute at RT (30 ul). Cells are blocked with 1% BSA for 1 hour and washed and stained with antibody (e.g. anti-Acetylated Histone H3, Upstate Biotechnology), followed by washing and incubation with an appropriate secondary antibody conjugated to HRP or fluorophore. For luminescence assays, signal is generated using Luminol substrate (Santa Cruz Biotechnology) and detected using an Aquest plate reader (Molecular Devices).

[3] = test system: HDAC; settings: published value for positive control; read-out: published in vitro IC50; cited from earlier work

SMILES | IC50 [1] [µM] | % Max Inhibition (in vitro) [1] [%] | Cellular IC50 [2] | IC50 [2] [µM] | Emax [2] [%] | % Max. Inhibition (cellular) [2] [%] | IC50 [3] [µM]
N#CSCC(=O)c1ccccc1 [Compound 1, 1-Phenyl-2-thiocyanato-ethanone] | 1 to 10 | >75 | active | – | – | – | –
N#CSCC(=O)c1ccc(F)c(F)c1 [Compound 2] | < 1 | >75 | active | – | – | – | –
N#CSCC(=O)c1ccc(Cl)c(Cl)c1 [Compound 3] | < 1 | >75 | – | 1 to 10 | 104 | – | –
Cc1cc(C(=O)CSC#N)ccc1Cl [Compound 4] | < 1 | >75 | – | 1 to 10 | > 75 | – | –
N#CSCC(=O)c1ccc2c(c1)OCCO2 [Compound 5] | < 1 | >75 | active | – | – | – | –
N#CSCC(=O)c1ccc(Cl)cc1 [Compound 6] | < 1 | >75 | – | 1 to 10 | > 75 | – | –
CC(=O)Nc1ccc(C(=O)CSC#N)cc1 [Compound 7] | < 1 | >75 | – | 1 to 10 | > 75 | – | –
N#CSCC(=O)c1cccc(Br)c1 [Compound 8] | < 1 | >75 | active | – | – | – | –
COc1cccc(C(=O)CSC#N)c1 [Compound 9] | < 1 | >75 | active | – | – | – | –
COc1ccc(C(=O)CSC#N)cc1 [Compound 10] | 1 to 10 | >75 | active | – | – | – | –
N#CSCC(=O)c1ccc(N2CCCC2)cc1 [Compound 11] | 1 to 10 | >50 | active | – | – | – | –
COc1ccc(C(=O)CSC#N)cc1OC [Compound 12] | 1 to 10 | >75 | – | – | – | – | –
CCN(CC)c1ccc(C(=O)CSC#N)cc1 [Compound 13] | 1 to 10 | >75 | active | – | – | – | –
O=C(CSC1=NCCS1)c1ccccc1 [Compound 14, 2-(4,5-Dihydro-thiazol-2-ylsulfanyl)-1-phenyl-ethanone] | > 10 | >75 | – | > 10 | < 50 | – | –
O=C(CSC1=NCCS1)c1ccc(Cl)c(Cl)c1 [Compound 15] | 1 to 10 | >75 | – | 1 to 10 | > 75 | – | –
O=C(CSC1=NCCS1)c1cccc(Br)c1 [Compound 16] | 1 to 10 | >75 | active | – | – | – | –
O=C(CSC1=NCCS1)c1ccc(Cl)cc1 [Compound 17] | > 10 | >75 | active | – | – | – | –
O=C(CSC1=NCCS1)c1ccc(Br)cc1 [Compound 18] | > 10 | >75 | active | – | – | – | –
O=C(CSC1=NCCS1)c1ccc2c(c1)OCCO2 [Compound 19] | > 10 | >75 | – | 1 to 10 | > 50 | – | –
COc1cccc(C(=O)CSC2=NCCS2)c1 [Compound 20] | > 10 | >75 | active | – | – | – | –

SMILES | IC50 [1] [µM] | % Max Inhibition (in vitro) [1] [%] | Cellular IC50 [2] | IC50 [2] [µM] | Emax [2] [%] | % Max. Inhibition (cellular) [2] [%] | IC50 [3] [µM]
CC(=O)Nc1ccc(C(=O)CSC2=NCCS2)cc1 [Compound 21] | > 10 | >75 | – | 1 to 10 | > 75 | – | –
CCN(CC)c1ccc(C(=O)CSC2=NCCS2)cc1 [Compound 22] | > 10 | <50 | – | 1 to 10 | < 50 | – | –
COc1ccc(C(=O)CSC2=NCCS2)cc1 [Compound 23] | > 10 | >50 | active | – | – | – | –
O=C(CSC1=NCCS1)c1ccc(N2CCCC2)cc1 [Compound 24] | > 10 | >50 | active | – | – | – | –
COc1ccc(C(=O)CSC2=NCCS2)cc1OC [Compound 25] | > 10 | <50 | active | – | – | – | –
COc1ccc(S(=O)(=O)Nc2ccc(C(=O)CSC3=NCCS3)cc2)cc1OC [Compound 26, N-{4-[2-(4,5-Dihydro-thiazol-2-ylsulfanyl)-acetyl]-phenyl}-3,4-dimethoxy-benzenesulfonamide] | 1 to 10 | >75 | – | < 1 | > 75 | – | –
O=C(CSC1=NCCS1)c1ccc(NS(=O)(=O)c2ccc(OC(F)(F)F)cc2)cc1 [Compound 27, N-{4-[2-(4,5-Dihydro-thiazol-2-ylsulfanyl)-acetyl]-phenyl}-4-trifluoromethoxy-benzenesulfonamide] | 1 to 10 | >75 | – | 1 to 10 | > 75 | – | –
CC(=O)Nc1ccc(S(=O)(=O)Nc2ccc(C(=O)CSC3=NCCS3)cc2)cc1 [Compound 29, N-(4-{4-[2(4,5-Dihydro-thiazol-2-ylsulfanyl)-acetyl]-phenylsulfamoyl}-phenyl)-acetamide] | 1 to 10 | >75 | – | 1 to 10 | > 75 | – | –
COc1ccc(S(=O)(=O)Nc2cccc(C(=O)CSC3=NCCS3)c2)cc1OC [Compound 30] | 1 to 10 | >75 | – | 1 to 10 | > 75 | – | –
O=C(CSC1=NCCS1)c1cccc(NS(=O)(=O)c2ccc(OC(F)(F)F)cc2)c1 [Compound 31] | 1 to 10 | >75 | – | 1 to 10 | > 75 | – | –
O=C1CSC(SCC(=O)c2ccccc2)=N1 [Compound 32] | < 1 | >75 | – | > 10 | > 50 | – | –
O=C1CSC(SCC(=O)c2ccc(Br)cc2)=N1 [Compound 33] | < 1 | >75 | – | > 10 | > 75 | – | –
O=C1CSC(SCC(=O)c2ccc3c(c2)OCCO3)=N1 [Compound 34, 2-[2-(2,3-Dihydro-benzo[1,4]dioxin-6-yl)-2-oxo-ethylsulfanyl]-thiazol-4-one] | < 1 | >75 | – | 1 to 10 | > 75 | – | –
O=C(CS)c1ccc(Br)cc1 [Compound 41, 1-(4-Bromo-phenyl)-2-mercapto-ethanone] | < 1 | >75 | active | – | > 75 | – | –
COc1cccc(C(=O)CS)c1 [Compound 42] | 1 to 10 | >75 | – | > 10 | > 75 | – | –
O=C(CSSCC(=O)c1ccc(NS(=O)(=O)c2ccc(OC(F)(F)F)cc2)cc1)c1ccc(NS(=O)(=O)c2ccc(OC(F)(F)F)cc2)cc1 [Compound 47, Thioacetic acid S-{2-oxo-2-[4-(4-trifluoromethoxy-benzenesulfonylamino)-phenyl]-ethyl}disulfide] | < 1 | >75 | – | < 1 | > 75 | – | –
CC(=O)SCC(=O)c1ccc(NS(=O)(=O)c2ccc(OC(F)(F)F)cc2)cc1 [Compound 48, Thioacetic acid S-{2-oxo-2-[4-(4-trifluoromethoxy-benzenesulfonylamino)-phenyl]-ethyl}ester] | < 1 | >75 | – | < 1 | > 75 | – | –
C[C@@H]1NC(=O)[C@H]2CCCN2C(=O)[C@H](CCCCCC(=O)[C@@H]2CO2)NC(=O)[C@@H](C)NC1=O [HC-toxin, reference compound] | < 1 | >75 | – | – | – | – | –
Nc1ccccc1NC(=O)c1ccc(CNC(=O)OCc2cccnc2)cc1 [MS-275, reference compound] | > 10 | >50 | – | 1 to 10 | – | >75 | –
CC(/C=C/C(=O)NO)=C\[C@@H](C)C(=O)c1ccc(N(C)C)cc1 [TSA, reference compound] | < 1 | 100 | – | < 1 | – | 100 | 0.003 to 0.006
